For 23 compounds, pKi results are on record in ChEMBL document CHEMBL1151914, “3D-QSAR studies of 2,2-diphenylpropionates to aid discovery of novel potent muscarinic antagonists” (Bioorg Med Chem, 2009).

This assay in a line: Inhibition of [3H]NMS binding to muscarinic receptor in mouse N4TG1 neuroblastoma cells.
As for `CN1CC2CC1C[C@H](OC(=O)C(C)(c1ccccc1)c1ccccc1)C2` (stereo partly drawn), the pKi was 8.3. `CN1CCCC(COC(=O)C(C)(c2ccccc2)c2ccccc2)C1` (stereo not drawn) came in with a pKi of 7.8.

As for `CC[N+]1(CCOC(=O)C(CO)c2ccccc2)CCCCC1` (stereo not drawn), the pKi is on record as 8.7. The compound `C[n+]1cscc1C(C)(C)OC(=O)c1ccccc1` came in with a pKi of 5.5.

`CN1CCC(OC(=O)C(C)(c2ccccc2)c2ccccc2)CC1` returned a negative logarithm of the Ki (pKi) of 8.8. The compound `CN1CCC(OC(=O)C(CO)c2ccc(C(F)(F)F)cc2)CC1` (stereo not drawn) came in with a pKi of 7.7. In turn, `CC(C)N(COC(=O)c1ccc(N)cc1)C(C)C` had a pKi of 5.3.

In turn, `CN1CCCCC1COC(=O)C(C)(c1ccccc1)c1ccccc1` (stereo not drawn) yielded a pKi of 6.8. Next, `CC[N+](C)(CC)CC(=O)Nc1ccc(Cl)c(Cl)c1`: more than 3.33; `CN1CCC(COC(=O)C(C)(c2ccccc2)c2ccccc2)CC1`: 7.7. Next, `CN1CCC(OC(=O)C(C)(c2ccccc2)c2ccccc2)C1` (stereo not drawn): 7.8; `CC(C(=O)OCCN1CCCCC1)(c1ccccc1)c1ccccc1`: 8.2.

Turning to `CN1CCCC1CCOC(=O)C(C)(c1ccccc1)c1ccccc1` (stereo not drawn), the pKi stood at 8. `C[N+](C)(C)CC#CC(O)(c1cccs1)C1CCCC1` (stereo not drawn) yielded a pKi of 7.1. Next, `C[N+](C)(C)CCOC(=O)C(c1ccccc1)c1ccccc1`: 7.1; `CCN1CCC(OC(=O)C(C)(c2ccccc2)c2ccccc2)CC1`: 9; `CC(C(=O)OCCN1CCCC1)(c1ccccc1)c1ccccc1`: 8.2.

Turning to `CCN1CCCC(OC(=O)C(C)(c2ccccc2)c2ccccc2)C1` (stereo not drawn), the pKi stood at 6.3. Take `CN1CCC2CC1C[C@@H](OC(=O)C(C)(c1ccccc1)c1ccccc1)C2` (stereo partly drawn): the pKi is on record as 8.3.

In turn, `CCN1CCC(COC(=O)C(C)(c2ccccc2)c2ccccc2)CC1` registered a negative-log Ki (pKi) of 6.9. Next, `CN1C2CC[C@H]1C[C@@H](OC(=O)C(C)(c1ccccc1)c1ccccc1)C2`: 8.4; `CCN(CC)CCOC(=O)C(C)(c1ccccc1)c1ccccc1` [APROFENE]: 8.2; `CN1[C@@H]2CC[C@H]1C[C@@H](OC(=O)C(CO)c1ccccc1)C2` (stereo partly drawn) [ATROPINE]: 8.4.

The pKi is the Ki on a negative log10 scale, so that one unit is a factor of ten. A high value points to a small Ki.
